Measurements published in the kinase profiling compilation of Christmann-Franck et al. (2016).

What was measured:
Assay in all cases: radiometric filter-binding kinase assay
AURKB (human) = AURKB (human) (UniProt Q96GD4)
BRSK1 (human) = BRSK1 (human) (UniProt Q8TDC3)
BTK (human) = BTK (human) (UniProt Q06187)
CAMKK2 (human) = CAMKK2 (human) (UniProt Q96RR4)
CSK (human) = CSK (human) (UniProt P41240)
CSNK1D (human) = CSNK1D (human) (UniProt P48730)
CaMK1 (human) = CaMK1 (human) (UniProt Q14012)
DYRK1A (human) = DYRK1A (human) (UniProt Q13627)
DYRK2 (human) = DYRK2 (human) (UniProt Q92630)
EPHA4 (human) = EPHA4 (human) (UniProt P54764)
EPHB2 (human) = EPHB2 (human) (UniProt P29323); details: compound 10.0 µM
EPHB3 (human) = EPHB3 (human) (UniProt P54753)
HIPK2 (human) = HIPK2 (human) (UniProt Q9H2X6)
IGF1R (human) = IGF1R (human) (UniProt P08069)
Sequence of IGF1R (human) (P08069 whole entry, looked up): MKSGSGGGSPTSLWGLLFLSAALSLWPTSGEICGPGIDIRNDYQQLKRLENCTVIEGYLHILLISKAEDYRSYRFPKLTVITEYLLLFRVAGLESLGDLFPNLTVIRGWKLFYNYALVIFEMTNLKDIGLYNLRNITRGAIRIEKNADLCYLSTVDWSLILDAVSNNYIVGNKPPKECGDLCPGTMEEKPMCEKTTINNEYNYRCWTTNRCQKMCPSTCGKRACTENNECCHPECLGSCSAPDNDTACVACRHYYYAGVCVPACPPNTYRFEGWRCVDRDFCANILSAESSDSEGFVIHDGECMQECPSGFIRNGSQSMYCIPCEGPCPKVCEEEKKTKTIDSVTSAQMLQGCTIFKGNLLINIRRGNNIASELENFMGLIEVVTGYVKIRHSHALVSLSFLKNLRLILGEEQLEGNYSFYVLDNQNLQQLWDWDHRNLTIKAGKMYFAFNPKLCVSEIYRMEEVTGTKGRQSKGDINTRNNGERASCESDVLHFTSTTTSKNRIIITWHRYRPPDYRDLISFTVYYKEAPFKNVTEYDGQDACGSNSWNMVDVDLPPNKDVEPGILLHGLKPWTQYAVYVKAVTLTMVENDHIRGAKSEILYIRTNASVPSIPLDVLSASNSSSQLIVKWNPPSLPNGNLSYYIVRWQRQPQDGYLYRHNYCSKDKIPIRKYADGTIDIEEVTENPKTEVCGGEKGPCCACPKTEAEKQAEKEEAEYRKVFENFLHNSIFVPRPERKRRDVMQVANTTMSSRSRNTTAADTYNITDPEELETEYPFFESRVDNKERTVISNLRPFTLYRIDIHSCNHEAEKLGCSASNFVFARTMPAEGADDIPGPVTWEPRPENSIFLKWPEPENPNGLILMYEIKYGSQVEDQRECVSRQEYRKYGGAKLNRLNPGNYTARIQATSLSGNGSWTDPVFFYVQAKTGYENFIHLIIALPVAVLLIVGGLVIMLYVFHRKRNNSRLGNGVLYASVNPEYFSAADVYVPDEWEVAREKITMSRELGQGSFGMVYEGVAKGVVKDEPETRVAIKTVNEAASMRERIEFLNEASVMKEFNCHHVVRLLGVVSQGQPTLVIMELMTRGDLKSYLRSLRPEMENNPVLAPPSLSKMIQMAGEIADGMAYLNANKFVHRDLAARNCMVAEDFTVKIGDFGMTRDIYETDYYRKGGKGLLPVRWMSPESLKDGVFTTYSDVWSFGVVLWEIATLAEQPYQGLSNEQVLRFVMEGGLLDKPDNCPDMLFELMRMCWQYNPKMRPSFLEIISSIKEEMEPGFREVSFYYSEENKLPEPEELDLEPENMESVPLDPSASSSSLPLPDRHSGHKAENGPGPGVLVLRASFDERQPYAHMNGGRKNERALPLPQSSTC

IKBKB (human) = IKBKB (human) (UniProt O14920)
IKBKE (human) = IKBKE (human) (UniProt Q14164)
MAP2K2 (human) = MAP2K2 (human) (UniProt P36507)
MAP3K11 (human) = MAP3K11 (human) (UniProt Q16584)
MAP3K7 TAB1 (human) = MAP3K7 TAB1 (human) (UniProt Q15750+O43318)
Sequence of MAP3K7 TAB1 (human) (O43318 whole entry, looked up): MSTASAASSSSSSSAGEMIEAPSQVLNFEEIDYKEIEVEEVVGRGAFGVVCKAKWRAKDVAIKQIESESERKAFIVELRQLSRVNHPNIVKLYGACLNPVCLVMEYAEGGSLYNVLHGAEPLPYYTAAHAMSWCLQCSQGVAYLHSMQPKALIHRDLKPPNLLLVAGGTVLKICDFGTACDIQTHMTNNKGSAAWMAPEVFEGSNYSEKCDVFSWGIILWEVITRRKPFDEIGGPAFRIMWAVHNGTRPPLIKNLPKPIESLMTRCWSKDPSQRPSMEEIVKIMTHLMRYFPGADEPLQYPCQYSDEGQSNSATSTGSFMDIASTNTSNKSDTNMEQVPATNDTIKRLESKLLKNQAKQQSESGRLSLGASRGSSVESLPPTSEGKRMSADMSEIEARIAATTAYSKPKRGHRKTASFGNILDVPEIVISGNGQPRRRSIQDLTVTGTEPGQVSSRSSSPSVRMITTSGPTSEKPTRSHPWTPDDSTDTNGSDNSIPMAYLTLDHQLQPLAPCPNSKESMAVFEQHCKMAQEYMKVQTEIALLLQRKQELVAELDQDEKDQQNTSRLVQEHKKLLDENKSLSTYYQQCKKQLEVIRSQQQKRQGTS
Sequence of MAP3K7 TAB1 (human) (Q15750 whole entry, looked up): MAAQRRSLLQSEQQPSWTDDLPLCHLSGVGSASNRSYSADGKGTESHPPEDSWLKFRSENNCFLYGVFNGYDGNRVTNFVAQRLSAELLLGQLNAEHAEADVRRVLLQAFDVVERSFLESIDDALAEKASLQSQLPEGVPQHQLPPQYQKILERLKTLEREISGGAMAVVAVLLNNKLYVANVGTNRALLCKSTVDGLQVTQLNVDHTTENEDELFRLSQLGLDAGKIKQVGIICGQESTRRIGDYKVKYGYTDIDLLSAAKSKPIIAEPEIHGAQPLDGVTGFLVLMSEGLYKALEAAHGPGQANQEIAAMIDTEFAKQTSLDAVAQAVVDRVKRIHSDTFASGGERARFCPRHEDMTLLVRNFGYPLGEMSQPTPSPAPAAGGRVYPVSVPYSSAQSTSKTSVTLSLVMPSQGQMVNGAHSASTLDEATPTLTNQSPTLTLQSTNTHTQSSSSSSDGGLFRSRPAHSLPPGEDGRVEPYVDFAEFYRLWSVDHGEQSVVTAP

MAPK12 (human) = MAPK12 (human) (UniProt P53778)
MAPK14 (human) = MAPK14 (human) (UniProt Q16539)
MAPK15 (human) = MAPK15 (human) (UniProt Q8TD08)
MAPK8 (human) = MAPK8 (human) (UniProt P45983)
Sequence of MAPK8 (human) (P45983 whole entry, looked up): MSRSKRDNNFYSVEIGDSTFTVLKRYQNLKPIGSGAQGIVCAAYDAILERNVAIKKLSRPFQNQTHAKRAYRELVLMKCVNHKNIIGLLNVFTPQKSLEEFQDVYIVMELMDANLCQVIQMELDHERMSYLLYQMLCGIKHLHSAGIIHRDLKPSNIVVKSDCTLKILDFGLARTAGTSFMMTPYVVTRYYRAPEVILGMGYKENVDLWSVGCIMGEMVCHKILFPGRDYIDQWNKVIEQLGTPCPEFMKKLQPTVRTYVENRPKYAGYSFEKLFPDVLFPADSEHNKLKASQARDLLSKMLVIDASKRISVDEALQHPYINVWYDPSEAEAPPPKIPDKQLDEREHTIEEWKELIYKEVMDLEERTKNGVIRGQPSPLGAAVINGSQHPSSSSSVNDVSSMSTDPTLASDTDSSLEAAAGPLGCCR

MAPK9 (human) = MAPK9 (human) (UniProt P45984)
MAPKAPK2 (human) = MAPKAPK2 (human) (UniProt P49137)
MAPKAPK5 (human) = MAPKAPK5 (human) (UniProt Q8IW41)
MELK (human) = MELK (human) (UniProt Q14680)
Sequence of MELK (human) (Q14680 whole entry, looked up): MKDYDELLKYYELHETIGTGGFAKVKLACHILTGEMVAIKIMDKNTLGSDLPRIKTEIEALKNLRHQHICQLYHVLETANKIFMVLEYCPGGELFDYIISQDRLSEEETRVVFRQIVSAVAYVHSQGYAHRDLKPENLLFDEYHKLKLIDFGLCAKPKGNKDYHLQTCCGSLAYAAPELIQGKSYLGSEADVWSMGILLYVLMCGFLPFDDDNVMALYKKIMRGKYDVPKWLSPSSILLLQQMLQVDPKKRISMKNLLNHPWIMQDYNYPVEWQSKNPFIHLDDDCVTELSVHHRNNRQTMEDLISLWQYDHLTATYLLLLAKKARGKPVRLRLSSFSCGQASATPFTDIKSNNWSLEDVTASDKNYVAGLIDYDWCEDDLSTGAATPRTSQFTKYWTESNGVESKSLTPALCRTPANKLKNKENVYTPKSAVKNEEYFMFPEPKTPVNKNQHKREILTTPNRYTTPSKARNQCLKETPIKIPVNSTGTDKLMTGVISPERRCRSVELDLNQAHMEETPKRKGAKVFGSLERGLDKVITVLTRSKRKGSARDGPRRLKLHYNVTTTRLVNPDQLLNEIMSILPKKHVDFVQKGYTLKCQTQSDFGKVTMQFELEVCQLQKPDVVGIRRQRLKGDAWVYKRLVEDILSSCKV

MINK1 (human) = MINK1 (human) (UniProt Q8N4C8)
MKNK2 (human) = MKNK2 (human) (UniProt Q9HBH9)
PAK4 (human) = PAK4 (human) (UniProt O96013)
PAK7 (human) = PAK7 (human) (UniProt Q9P286)
Sequence of PAK7 (human) (Q9P286 whole entry, looked up): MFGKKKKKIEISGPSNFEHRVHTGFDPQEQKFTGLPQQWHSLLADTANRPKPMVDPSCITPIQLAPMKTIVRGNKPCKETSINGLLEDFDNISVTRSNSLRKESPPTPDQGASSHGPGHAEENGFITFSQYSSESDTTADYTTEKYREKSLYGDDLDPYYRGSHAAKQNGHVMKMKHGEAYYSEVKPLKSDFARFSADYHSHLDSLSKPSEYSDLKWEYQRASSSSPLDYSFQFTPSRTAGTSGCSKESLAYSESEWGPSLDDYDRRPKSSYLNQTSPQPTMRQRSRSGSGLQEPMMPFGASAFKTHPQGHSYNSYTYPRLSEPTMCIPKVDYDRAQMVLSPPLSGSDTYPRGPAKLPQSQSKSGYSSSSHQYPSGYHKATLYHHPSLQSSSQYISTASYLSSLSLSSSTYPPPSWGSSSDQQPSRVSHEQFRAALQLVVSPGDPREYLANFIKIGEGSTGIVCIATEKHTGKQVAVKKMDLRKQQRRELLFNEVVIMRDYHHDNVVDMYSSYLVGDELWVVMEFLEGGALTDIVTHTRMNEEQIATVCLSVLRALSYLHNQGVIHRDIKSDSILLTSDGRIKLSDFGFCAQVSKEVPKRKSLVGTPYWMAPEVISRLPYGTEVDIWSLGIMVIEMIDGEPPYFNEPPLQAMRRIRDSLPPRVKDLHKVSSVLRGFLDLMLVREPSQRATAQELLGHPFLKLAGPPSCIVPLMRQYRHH

PIM1 (human) = PIM1 (human) (UniProt P11309)
Sequence of PIM1 (human) (P11309 whole entry, looked up): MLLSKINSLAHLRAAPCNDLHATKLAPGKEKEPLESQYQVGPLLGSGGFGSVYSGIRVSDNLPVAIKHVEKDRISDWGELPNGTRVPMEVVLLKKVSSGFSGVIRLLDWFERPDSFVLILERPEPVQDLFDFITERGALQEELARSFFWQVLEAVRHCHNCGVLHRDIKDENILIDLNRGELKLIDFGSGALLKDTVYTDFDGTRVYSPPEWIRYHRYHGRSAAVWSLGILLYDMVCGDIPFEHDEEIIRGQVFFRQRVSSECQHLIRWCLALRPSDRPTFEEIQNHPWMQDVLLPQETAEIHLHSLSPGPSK

PRKACA (human) = PRKACA (human) (UniProt P17612)
RIPK2 (human) = RIPK2 (human) (UniProt O43353)
YES1 (human) = YES1 (human) (UniProt P07947)

Sequence of AURKB (human) (Q96GD4 whole entry, looked up): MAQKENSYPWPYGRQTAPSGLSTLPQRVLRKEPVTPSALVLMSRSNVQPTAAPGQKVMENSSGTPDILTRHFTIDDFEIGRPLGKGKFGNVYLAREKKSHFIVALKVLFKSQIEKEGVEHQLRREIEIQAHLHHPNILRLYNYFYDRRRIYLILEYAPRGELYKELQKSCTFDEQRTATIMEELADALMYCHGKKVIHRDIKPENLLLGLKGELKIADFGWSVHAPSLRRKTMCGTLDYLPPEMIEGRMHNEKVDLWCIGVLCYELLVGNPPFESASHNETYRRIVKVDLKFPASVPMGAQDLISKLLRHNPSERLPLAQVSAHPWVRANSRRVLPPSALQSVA

Question: Which results are given for `O=C(NOCC(O)CO)c1ccc(F)c(F)c1Nc1ccc(I)cc1Cl` (stereo not drawn)?
Answer: residual activity (AURKB (human); compound 1.0 µM): 99%; residual activity (AURKB (human); compound 10.0 µM): 78%; residual activity (BRSK1 (human); compound 1.0 µM): 98%; residual activity (BRSK1 (human); compound 10.0 µM): 101%; residual activity (BTK (human); compound 1.0 µM): 102%; residual activity (BTK (human); compound 10.0 µM): 97%; residual activity (CAMKK2 (human); compound 1.0 µM): 108%; residual activity (CAMKK2 (human); compound 10.0 µM): 103%; residual activity (CSK (human); compound 1.0 µM): 89%; residual activity (CSK (human); compound 10.0 µM): 88%; residual activity (CSNK1D (human); compound 1.0 µM): 96%; residual activity (CSNK1D (human); compound 10.0 µM): 97%; residual activity (CaMK1 (human); compound 1.0 µM): 106%; residual activity (CaMK1 (human); compound 10.0 µM): 84%; residual activity (DYRK1A (human); compound 1.0 µM): 91%; residual activity (DYRK1A (human); compound 10.0 µM): 85%; residual activity (DYRK2 (human); compound 1.0 µM): 107%; residual activity (DYRK2 (human); compound 10.0 µM): 111%; residual activity (EPHA4 (human); compound 1.0 µM): 97%; residual activity (EPHA4 (human); compound 10.0 µM): 100%; residual activity (EPHB2 (human)): 77%; residual activity (EPHB3 (human); compound 1.0 µM): 113%; residual activity (EPHB3 (human); compound 10.0 µM): 82%; residual activity (HIPK2 (human); compound 1.0 µM): 102%; residual activity (HIPK2 (human); compound 10.0 µM): 106%; residual activity (IGF1R (human); compound 1.0 µM): 76%; residual activity (IGF1R (human); compound 10.0 µM): 98%; residual activity (IKBKB (human); compound 1.0 µM): 78%; residual activity (IKBKB (human); compound 10.0 µM): 89%; residual activity (IKBKE (human); compound 1.0 µM): 102%; residual activity (IKBKE (human); compound 10.0 µM): 103%; residual activity (MAP2K2 (human); compound 1.0 µM): 55%; residual activity (MAP2K2 (human); compound 10.0 µM): 23%; residual activity (MAP3K11 (human); compound 1.0 µM): 83%; residual activity (MAP3K11 (human); compound 10.0 µM): 89%; residual activity (MAP3K7 TAB1 (human); compound 1.0 µM): 91%; residual activity (MAP3K7 TAB1 (human); compound 10.0 µM): 92%; residual activity (MAPK12 (human); compound 1.0 µM): 80%; residual activity (MAPK12 (human); compound 10.0 µM): 96%; residual activity (MAPK14 (human); compound 1.0 µM): 102%; residual activity (MAPK14 (human); compound 10.0 µM): 97%; residual activity (MAPK15 (human); compound 1.0 µM): 95%; residual activity (MAPK15 (human); compound 10.0 µM): 98%; residual activity (MAPK8 (human); compound 1.0 µM): 87%; residual activity (MAPK8 (human); compound 10.0 µM): 93%; residual activity (MAPK9 (human); compound 1.0 µM): 88%; residual activity (MAPK9 (human); compound 10.0 µM): 92%; residual activity (MAPKAPK2 (human); compound 1.0 µM): 104%; residual activity (MAPKAPK2 (human); compound 10.0 µM): 102%; residual activity (MAPKAPK5 (human); compound 1.0 µM): 93%; residual activity (MAPKAPK5 (human); compound 10.0 µM): 100%; residual activity (MELK (human); compound 1.0 µM): 109%; residual activity (MELK (human); compound 10.0 µM): 106%; residual activity (MINK1 (human); compound 1.0 µM): 119%; residual activity (MINK1 (human); compound 10.0 µM): 127%; residual activity (MKNK2 (human); compound 1.0 µM): 89%; residual activity (MKNK2 (human); compound 10.0 µM): 90%; residual activity (PAK4 (human); compound 1.0 µM): 98%; residual activity (PAK4 (human); compound 10.0 µM): 77%; residual activity (PAK7 (human); compound 1.0 µM): 102%; residual activity (PAK7 (human); compound 10.0 µM): 86%; residual activity (PIM1 (human); compound 1.0 µM): 102%; residual activity (PIM1 (human); compound 10.0 µM): 71%; residual activity (PRKACA (human); compound 1.0 µM): 94%; residual activity (PRKACA (human); compound 10.0 µM): 103%; residual activity (RIPK2 (human); compound 1.0 µM): 86%; residual activity (RIPK2 (human); compound 10.0 µM): 84%; residual activity (YES1 (human); compound 1.0 µM): 76%; residual activity (YES1 (human); compound 10.0 µM): 79%

Question: Which residual activity (AURKB (human); compound 10.0 µM) does the source give for `Cc1ccc2c(c1)C(=O)[C@@]1(O)CCN(c3ccccc3)C1=N2` here?
Answer: 88%

Question: And the residual activity (BRSK1 (human); compound 10.0 µM)?
Answer: 106%

Question: What about the residual activity (BTK (human); compound 10.0 µM) of the same compound?
Answer: 82%

Question: What about the residual activity (CAMKK2 (human); compound 10.0 µM) of the same compound?
Answer: 90%

Question: What about the residual activity (CSK (human); compound 10.0 µM) of the same compound?
Answer: 69%

Question: What about the residual activity (CSK (human); compound 100.0 µM) of the same compound?
Answer: 67%

Question: And the residual activity (CSNK1D (human); compound 10.0 µM)?
Answer: 99%

Question: What about the residual activity (CSNK1D (human); compound 100.0 µM) of the same compound?
Answer: 91%

Question: What about the residual activity (CaMK1 (human); compound 10.0 µM) of the same compound?
Answer: 74%

Question: What about the residual activity (DYRK1A (human); compound 10.0 µM) of the same compound?
Answer: 97%

Question: And the residual activity (DYRK1A (human); compound 100.0 µM)?
Answer: 90%

Question: And the residual activity (DYRK2 (human); compound 10.0 µM)?
Answer: 76%

Question: What about the residual activity (EPHA4 (human); compound 10.0 µM) of the same compound?
Answer: 108%

Question: And the residual activity (EPHB2 (human))?
Answer: 116%

Question: And the residual activity (EPHB3 (human); compound 10.0 µM)?
Answer: 107%

Question: What about the residual activity (HIPK2 (human); compound 10.0 µM) of the same compound?
Answer: 98%

Question: And the residual activity (IGF1R (human); compound 10.0 µM)?
Answer: 88%

Question: What about the residual activity (IKBKB (human); compound 10.0 µM) of the same compound?
Answer: 96%

Question: And the residual activity (IKBKE (human); compound 10.0 µM)?
Answer: 85%

Question: And the residual activity (MAP2K2 (human); compound 10.0 µM)?
Answer: 81%

Question: And the residual activity (MAP3K11 (human); compound 10.0 µM)?
Answer: 73%

Question: What about the residual activity (MAP3K7 TAB1 (human); compound 10.0 µM) of the same compound?
Answer: 96%

Question: What about the residual activity (MAPK12 (human); compound 10.0 µM) of the same compound?
Answer: 99%

Question: And the residual activity (MAPK12 (human); compound 100.0 µM)?
Answer: 80%

Question: What about the residual activity (MAPK14 (human); compound 10.0 µM) of the same compound?
Answer: 101%

Question: And the residual activity (MAPK14 (human); compound 100.0 µM)?
Answer: 80%

Question: And the residual activity (MAPK15 (human); compound 10.0 µM)?
Answer: 89%

Question: And the residual activity (MAPK8 (human); compound 10.0 µM)?
Answer: 92%

Question: And the residual activity (MAPK8 (human); compound 100.0 µM)?
Answer: 78%

Question: What about the residual activity (MAPK9 (human); compound 10.0 µM) of the same compound?
Answer: 88%

Question: What about the residual activity (MAPKAPK2 (human); compound 10.0 µM) of the same compound?
Answer: 82%

Question: And the residual activity (MAPKAPK2 (human); compound 100.0 µM)?
Answer: 80%

Question: What about the residual activity (MAPKAPK5 (human); compound 10.0 µM) of the same compound?
Answer: 82%

Question: What about the residual activity (MAPKAPK5 (human); compound 100.0 µM) of the same compound?
Answer: 64%

Question: And the residual activity (MELK (human); compound 10.0 µM)?
Answer: 96%

Question: What about the residual activity (MINK1 (human); compound 10.0 µM) of the same compound?
Answer: 72%

Question: What about the residual activity (MKNK2 (human); compound 10.0 µM) of the same compound?
Answer: 104%

Question: And the residual activity (PAK4 (human); compound 10.0 µM)?
Answer: 90%

Question: What about the residual activity (PAK7 (human); compound 10.0 µM) of the same compound?
Answer: 73%

Question: And the residual activity (PIM1 (human); compound 10.0 µM)?
Answer: 87%

Question: And the residual activity (PRKACA (human); compound 10.0 µM)?
Answer: 101%

Question: And the residual activity (PRKACA (human); compound 100.0 µM)?
Answer: 70%

Question: And the residual activity (RIPK2 (human); compound 10.0 µM)?
Answer: 90%

Question: What about the residual activity (YES1 (human); compound 10.0 µM) of the same compound?
Answer: 96%
